For data set [1], the system named is 3D7 strain of Plasmodium falciparum. As to the kind of experiment: Potency in the 3D7 strain of Plasmodium falciparum (EC50). In kind it is cell-based. Particulars: for EC50: Plasmodium falciparum.
Data set [2] can be described thus: Solubility of the desbenzo analogue compared with 66. It counts as physicochemical. Here is the method:
For example, the melting point of 66 is 220° C. and the desbenzo analogue is 83.5° C.

The next data set is described as follows: in vitro. Particulars: human. It counts as cell-based. The text has this: The present invention relates to methods of treating malaria with tetrahydrobenzonaphtyridine carboxanilide (TBN) derivatives and related pyrrolinones and hydrolysis products thereof. These compounds are active against Plasmodium falciparum strains that are resistant to multiple drugs currently on the market. The present invention further relates to novel compounds and pharmaceutical compositions comprising such compounds. The compounds have been synthesized and tested for their potency in the 3D7 strain of Plasmodium falciparum. Their cytotoxicity was also tested in the BJ human fibroblast line. No compounds show significant cytotoxicity.
A high-throughput screen performed against the Plasmodium parasite. About 8,000 compounds were screened. Each hit was tested against resistant P. falciparum variants K1, V1S, D10DD, ATP4 1247, and C2B. Potency against these assays assured that the chemotype acts through a mechanism distinct from that of halofantrine, chloroquine, mefloquine, pyrimethamine, proguanil, atovaquone, and (+)SJ733. The toxicity of the compounds was also measured by testing their lethality against a BJ cell line (human fibroblasts). No TBNs were toxic. A structure activity investigation was performed in order to improve the EC50 of the TBNs to the single-digit nanomolar range, as well as to increase the water solubility.

Data set [3] relates to resistant P. falciparum variant K1. The data set can be described thus: Potency against resistant P. falciparum variant K1 (EC50). It counts as cell-based. Particulars: Plasmodium falciparum, K1, read-out: K1 EC50 (μM).
Where [4] appears, read: 3D7, read-out: 3D7 Mean EC50 (μM).

Where two headings read alike, the source gives them in different places.

As a reminder, the EC50 is the midpoint of the concentration-response curve. In turn, `O=C(Nc1ccc(F)c(F)c1)c1ccnc2c1CN(Cc1ccccc1)CC2` [Compound 68, 6-Benzyl-N-(3,4-difluorophenyl)-5,6,7,8-tetrahydro-1,6-naphthyridine-4-carboxamide] showed a 50% effective concentration (EC50) in data set [1] (3D7) of 3.48 µM. For the same compound, the “solubility, in words” value in data set [2] was “increased solubility versus 66”.

Take `CC(c1ccccn1)N1CCc2nc3ccccc3c(C(=O)Nc3ccc(F)c(F)c3)c2C1` (stereo not shown) [Compound 90, N-(3,4-Difluorophenyl)-2-(1-(pyridin-2-yl)ethyl)-1,2,3,4-tetrahydrobenzo[b][1,6]naphthyridine-10-carboxamide]: the half-maximal effective concentration (EC50) in “in vitro” was > 11700 nM; in data set [1] (setting [4]), 0.0603 ± 0.0234 µM; in data set [3], 0.0439 µM.

Consider `C=CCN1CCc2nc3ccccc3c(C(=O)Nc3ccc(F)c(F)c3)c2C1` [Compound 92, 2-Allyl-N-(3,4-difluorophenyl)-1,2,3,4-tetrahydrobenzo[b][1,6]naphthyridine-10-carboxamide], for which the results for the EC50 (in “in vitro”; in data set [1] (setting [4]); in data set [3]) were > 23300 nM, 0.128 ± 0.0238 µM and 0.0719 µM, respectively.

Consider `COC(=O)CCN1CCc2nc3ccccc3c(C(=O)Nc3ccc(F)c(F)c3)c2C1` [Compound 109, Methyl 3-(10-((3,4-difluorophenyl)carbamoyl)-3,4-dihydrobenzo[b][1,6]naphthyridin-2(1H)-yl)propanoate], for which the EC50 in “in vitro” is > 23300 nM; in data set [1] (setting [4]), 0.673 ± 0.107 µM; in data set [3] it was 0.487 µM.

Take `CN(C)C(=O)CCN1CCc2nc3ccccc3c(C(=O)Nc3ccc(F)c(F)c3)c2C1` [Compound 110, N-(3,4-Difluorophenyl)-2-(3-(dimethylamino)-3-oxopropyl)-1,2,3,4-tetrahydrobenzo[b][1,6]naphthyridine-10-carboxamide]: the concentration for a half-maximal effect (EC50) in “in vitro” is > 23300 nM; in data set [1] (setting [4]), 0.888 ± 0.459 µM; in data set [3] it was 0.658 µM.

`N#CCCN1CCc2nc3ccccc3c(C(=O)Nc3ccc(F)c(F)c3)c2C1` [Compound 113, 2-(2-Cyanoethyl)-N-(3,4-difluorophenyl)-1,2,3,4-tetrahydrobenzo[b][1,6]naphthyridine-10-carboxamide]: the EC50 in “in vitro” was > 23300 nM; in data set [1] (setting [4]), 1.62 ± 1.25 µM; in data set [3], 2.05 ± 0.256 µM.

As for `CC(=O)O[C@H]1CO[C@H]2[C@@H]1OC[C@@H]2Oc1cccc(N2C(=O)c3c4c(nc5ccccc35)CCN(CCc3ccccc3)C42)c1` (stereo partly drawn) [Compound 183, (3S,3aR,6S,6aR)-6-(3-(1-Oxo-3-phenethyl-2a,3,4,5-tetrahydrobenzo[b]pyrrolo[4,3,2-de][1,6]naphthyridin-2(1H)-yl)phenoxy)hexahydrofuro[3,2-b]furan-3-yl Acetate], the figures for the EC50 (in “in vitro”; in data set [1] (3D7); in data set [1] (setting [4])) were > 24000 nM, 0.0407 µM and 0.0407 ± 0.012 µM, respectively. Also, in data set [1] (183 versus corresponding TBN 147), the “improvement of potency by oxidation of the TBN to the pyrrolinone” value was “nearly a hundred-fold”.

As to `N#Cc1cc(N2C(=O)c3c4c(nc5cc(Cl)ccc35)CCN(CCc3ccccc3)C42)ccc1F` (stereo not shown) [Compound 184, 5-(8-Chloro-1-oxo-3-phenethyl-2a,3,4,5-tetrahydrobenzo[b]pyrrolo[4,3,2-de][1,6]naphthyridin-2(1H)-yl)-2-fluorobenzonitrile], the concentration for a half-maximal effect (EC50) in “in vitro” was > 24000 nM; in data set [1] (setting [4]), 0.0437 ± 0.021 µM.

On to `COc1ccc(N2C(=O)c3c4c(nc5ccc(Cl)cc35)CCN(CCc3ccccc3)C42)cc1OC` (stereo not shown) [Compound 185, 9-Chloro-2-(3,4-dimethoxyphenyl)-3-phenethyl-2a,3,4,5-tetrahydrobenzo[b]pyrrolo[4,3,2-de][1,6]naphthyridin-1(2H)-one], for which the values for the EC50 (in “in vitro”; in data set [1] (setting [4])) were > 24000 nM and 0.049 ± 0.016 µM, respectively.

These data come from US12370183B2, “Compositions and methods for treating malaria” (Rutgers, The State University of New Jersey, priority 2020, dated 2025).
